The target in the test is T1, c-kit (Homo sapiens, UniProt P10721).
T1 construct: human Mo7e cells which endogenously express c-kit; endogenous in cells; host or cells: human Mo7e cells (SCF-dependent promegakaryocytic leukemia line)
Briefly: Mo7e cell proliferation assay (SCF dependent proliferation). Type of test: cell-based. In short, it runs like this: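 SCF-dependent proliferation of human Mo7e cells, which express c-kit endogenously, was measured after 48 h at 37° C by CellTiter Glo luminescence. IC50 was taken as the concentration giving a response halfway between the baseline and maximum responses.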

Where [1] appears, read: Table 1, human Mo7e cells stimulated with human recombinant SCF, 48 h, CellTiter Glo, 1% FBS (footnote).
Where [2] appears, read: Table 2, human Mo7e cells stimulated with human recombinant SCF, 48 h, CellTiter Glo, 1% FBS (footnote).

T1 sequence (P10721 26-976): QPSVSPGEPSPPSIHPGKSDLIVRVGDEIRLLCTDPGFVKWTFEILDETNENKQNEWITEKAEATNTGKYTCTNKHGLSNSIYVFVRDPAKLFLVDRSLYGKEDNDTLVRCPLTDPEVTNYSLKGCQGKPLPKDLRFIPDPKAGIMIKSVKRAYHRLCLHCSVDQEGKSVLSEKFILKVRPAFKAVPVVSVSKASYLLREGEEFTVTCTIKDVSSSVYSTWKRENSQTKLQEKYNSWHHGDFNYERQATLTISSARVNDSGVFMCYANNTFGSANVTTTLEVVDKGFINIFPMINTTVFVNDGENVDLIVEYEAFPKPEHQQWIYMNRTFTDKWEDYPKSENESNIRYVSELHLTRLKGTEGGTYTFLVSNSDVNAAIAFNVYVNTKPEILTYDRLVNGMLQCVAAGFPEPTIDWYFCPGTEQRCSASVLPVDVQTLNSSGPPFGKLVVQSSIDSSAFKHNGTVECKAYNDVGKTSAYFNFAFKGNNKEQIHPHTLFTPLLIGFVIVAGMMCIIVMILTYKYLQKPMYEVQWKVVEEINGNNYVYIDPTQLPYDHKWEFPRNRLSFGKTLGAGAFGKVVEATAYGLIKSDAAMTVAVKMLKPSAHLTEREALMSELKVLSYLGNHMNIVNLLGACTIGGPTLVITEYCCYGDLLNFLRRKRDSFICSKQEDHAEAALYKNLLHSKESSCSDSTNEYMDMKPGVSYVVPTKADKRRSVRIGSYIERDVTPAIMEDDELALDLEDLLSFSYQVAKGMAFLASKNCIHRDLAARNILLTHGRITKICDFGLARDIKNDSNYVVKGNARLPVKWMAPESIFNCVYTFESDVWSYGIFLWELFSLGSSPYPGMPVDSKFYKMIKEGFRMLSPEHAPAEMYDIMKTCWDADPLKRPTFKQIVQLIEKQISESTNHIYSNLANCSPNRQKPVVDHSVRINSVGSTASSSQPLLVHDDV

Regarding `Cc1ccn2c(C(=O)Nc3cc(-c4noc(CCC(C)(OC(=O)[C@H](C)N)C(F)(F)F)n4)ccc3C)cnc2c1` (stereo partly drawn) [F271, (2S)-1,1,1-trifluoro-2-methyl-4-(3-(4-methyl-3-(7-methylimidazo[1,2-a]pyridine-3-carboxamido)phenyl)-1,2,4-oxadiazol-5-yl)butan-2-yl 2-aminopropanoate], the IC50 under setting [1] was found to be 8 nM. `Cc1ccc(-c2noc([C@@H](C)N)n2)cc1NC(=O)c1cnc2ccccn12` [F127]: the IC50 under setting [2] was 196 nM. On to `COC(=O)NCc1nc(-c2ccc(C)c(NC(=O)c3cnc4ccc(C#N)cn34)c2)no1` [F168], for which the half-maximal inhibitory concentration (IC50) under setting [2] came to 220 nM.

For `Cc1ccc(-c2noc(CC(O)(C(F)(F)F)C(F)(F)F)n2)cc1NC(=O)c1cnc2ccccn12` [F16], the IC50 under setting [1] stood at 22 nM. The same measure, in the same setting: then `CCOCc1nc(-c2ccc(C)c(NC(=O)c3cnc4ccccn34)c2)no1` [F12], with 49 nM; and `Cc1ccc(-c2noc(CCC(C)(C)O)n2)cc1NC(=O)c1cnc2cc(C3CC3)ccn12` [F64], with 48 nM. Take `COCc1n[nH]c(-c2ccc3ncc(C(=O)Nc4cc(-c5noc(C)n5)ccc4C)n3c2)n1` [F196]: the IC50 under setting [2] worked out at 414 nM.

On to `Cc1nc(-c2ccc(C)c(NC(=O)c3cnc4ccc(-c5cnn(CCN6CCOCC6)c5)cn34)c2)no1` [F51], for which, under setting [1], the IC50 came to 95 nM. In the case of `Cc1nc(-c2ccc(C)c(NC(=O)c3cnc4ccc(CCN5CCOCC5C)cn34)c2)no1` (stereo not shown) [F186], the IC50 under setting [2] was found to be 416 nM. Still for that read-out and setting: then `Cc1ccc(-c2noc(CNC(=O)CCC(F)(F)F)n2)cc1NC(=O)c1cnc2ccccn12` [F154], with 182 nM. With `CCS(=O)(=O)NCc1nc(-c2ccc(C)c(NC(=O)c3cnc4ccccn34)c2)no1` [F20], the IC50 under setting [1] came out at 61 nM. For `Cc1ccc(-c2noc(C[C@@H](C)NC(=O)OC(C)(C)C)n2)cc1NC(=O)c1cnc2ccccn12` [F142], under setting [2], the IC50 is 294 nM. With `Cc1ccc(-c2noc(CC[C@@](C)(O)C(F)(F)F)n2)cc1NC(=O)c1cnc2ccc(F)cn12` [F88], the IC50 under setting [1] is 42 nM. With `CCOC(=O)c1nc(C)c(-c2ccc3ncc(C(=O)Nc4cc(-c5noc(C)n5)ccc4C)n3c2)s1` [F261, ethyl 4-methyl-5-(3-((2-methyl-5-(5-methyl-1,2,4-oxadiazol-3-yl)phenyl)carbamoyl)imidazo[1,2-a]pyridin-6-yl)thiazole-2-carboxylate], the concentration for half-maximal inhibition (IC50) under setting [1] was 83 nM.

With `Cc1nc(-c2ccc(C)c(NC(=O)c3cnc4ccc(-c5ccnc(N)c5)cn34)c2)no1` [F103], the IC50 under setting [1] came to 61 nM. Still for that read-out and setting: in the case of `Cc1ccc(-c2noc(CCC(C)(C)O)n2)cc1NC(=O)c1cnc2cc(-c3ccn(C)n3)ccn12` [F42] it was 9 nM. `COC(=O)NCc1nc(-c2ccc(C)c(NC(=O)c3cnc4ccc(CCC(=O)OC(C)(C)C)cn34)c2)no1` [F216]: under setting [2], the 50% inhibitory concentration (IC50) stood at 1030 nM.

For `Cc1nc(-c2ccc(C)c(NC(=O)c3cnc4ccc(-c5nc(C)c(C(C)O)s5)cn34)c2)no1` (stereo not shown) [F236], under setting [2], the half-inhibitory concentration (IC50) turned out to be 166 nM.

With `COCCOCc1nc(-c2ccc(C)c(NC(=O)c3cnc4ccc(OC)cn34)c2)no1` [F188], under setting [2], the concentration for half-maximal inhibition (IC50) was found to be 103 nM. Regarding `Cc1nc(-c2ccc(C)c(NC(=O)c3cnc4ccc(-c5sc(C(N)=O)nc5C)cn34)c2)no1` [F264, 4-methyl-5-(3-((2-methyl-5-(5-methyl-1,2,4-oxadiazol-3-yl)phenyl)carbamoyl)imidazo[1,2-a]pyridin-6-yl)thiazole-2-carboxamide], the IC50 under setting [1] amounted to 38 nM.

For `[2H]c1c([2H])c([2H])n2c(C(=O)Nc3cc(-c4noc(CCC(C)(O)C(F)(F)F)n4)ccc3C)cnc2c1[2H]` (stereo not shown) [F73], under setting [1], the concentration for half-maximal inhibition (IC50) was 25 nM. As for `Cc1nc(-c2ccc(C)c(NC(=O)c3cnc4cc(C#N)ccn34)c2)no1` [F187], under setting [2], the 50% inhibitory concentration (IC50) was 219 nM. The same measure, in the same setting: in the case of `COCCOCc1nc(-c2ccc(C)c(NC(=O)c3cnc4ccccn34)c2C)no1` [F215] it was 886 nM. With `Cc1ccc(-c2noc(CCC(C)(C)O)n2)cc1NC(=O)c1cnc2ccc(F)cn12` [F36, 6-fluoro-N-(5-(5-(3-hydroxy-3-methylbutyl)-1,2,4-oxadiazol-3-yl)-2-methylphenyl)imidazo[1,2-a]pyridine-3-carboxamide], the IC50 under setting [1] was 87 nM. The same measure, in the same setting: then `COCCOCc1nc(-c2ccc(C)c(NC(=O)c3cnc4ccc(C)cn34)c2)no1` [F58], with 90 nM. `COC(=O)N[C@@H](C)c1nc(-c2ccc(C)c(NC(=O)c3cnc4ccccn34)c2)no1` [F135]: the concentration for half-maximal inhibition (IC50) under setting [2] came out at 166 nM. Regarding `Cc1ccn2c(C(=O)Nc3cc(-c4noc(CCC(O)C(F)(F)F)n4)ccc3C)cnc2c1` (stereo not shown) [F253], the concentration for half-maximal inhibition (IC50) under setting [1] came to 13 nM. Same read-out and setting: then `Cc1ccc(-c2noc(CNC(=O)C(F)(F)F)n2)cc1NC(=O)c1cnc2ccccn12` [F24, N-(2-methyl-5-(5-((2,2,2-trifluoroacetamido)methyl)-1,2,4-oxadiazol-3-yl)phenyl)imidazo[1,2-a]pyridine-3-carboxamide], with 56 nM. For `Cc1nc(-c2ccc(C)c(NC(=O)c3cnc4ccc(CCC(C)(C)O)cn34)c2)no1` [F181], the half-maximal inhibitory concentration (IC50) under setting [2] was 287 nM. As for `Cc1ccc2ncc(C(=O)Nc3cc(-c4noc(CC[C@](C)(O)C(F)(F)F)n4)ccc3C)n2c1` [F84], the IC50 under setting [1] stood at 30 nM. As for `COC(=O)NCc1nc(-c2ccc(C)c(NC(=O)c3cnc4cc(F)ccn34)c2)no1` [F159], the IC50 under setting [2] amounted to 184 nM. As for `CC(=O)N[C@@H](C)c1nc(-c2ccc(C)c(NC(=O)c3cnc4ccccn34)c2)no1` [F140], the half-inhibitory concentration (IC50) under setting [2] was 1340 nM. Regarding `Cc1nc(-c2ccc(C)c(NC(=O)c3cnc4ccc(C(N)=S)cn34)c2)no1` [F241], the half-maximal inhibitory concentration (IC50) under setting [2] came out at 127 nM.

As for `CO[C@H](C)c1nc(-c2ccc(C)c(NC(=O)c3cnc4ccccn34)c2)no1` [F14], under setting [1], the half-inhibitory concentration (IC50) amounted to 99 nM. Consider `COCCOCc1nc(-c2ccc(C)c(NC(=O)c3cnc4ccc(F)cn34)c2)no1` [F179], for which the IC50 under setting [2] stood at 139 nM.

For `COCc1noc(-c2ccc(C)c(NC(=O)c3cnc4ccccn34)c2)n1` [F108], half-maximal inhibition (Table 2, values marked *: 20% FBS instead of 1% FBS) (IC50) required 716 nM. On to `CCOC(=O)Cc1nc(-c2ccc(C)c(NC(=O)c3cnc4ccccn34)c2)no1` [F7], for which the 50% inhibitory concentration (IC50) under setting [1] stood at 87 nM.

Consider `COCCOC(=O)NCc1nc(-c2ccc(C)c(NC(=O)c3cnc4ccccn34)c2)no1` [F165], for which the half-inhibitory concentration (IC50) under setting [2] came to 512 nM. As to `Cc1ccc(-c2noc(COCC(F)(F)F)n2)cc1NC(=O)c1cnc2ccccn12` [F39], the half-maximal inhibitory concentration (IC50) under setting [1] was determined as 8 nM. Still for that read-out and setting: in the case of `Cc1nc(-c2ccc(C)c(NC(=O)c3cnc4ccc(-c5cn[nH]c5)cn34)c2)no1` [F43] it was 46 nM. `CCC(C)(O)c1nc(-c2ccc(C)c(NC(=O)c3cnc4ccccn34)c2)no1` (stereo not shown) [F205]: the IC50 under setting [2] amounted to 174 nM.

`Cc1ccc(-c2noc(CNC(=O)CCO)n2)cc1NC(=O)c1cnc2ccccn12` [F224]: the IC50 under setting [2] is 1480 nM. Consider `Cc1ccc(-c2noc(CCC(C)(C)O)n2)cc1NC(=O)c1cnc2ccccn12` [F119], for which the IC50 under setting [2] was found to be 112 nM.

Values taken from patent publication US20150011508A1, “COMPOUNDS AND COMPOSITIONS AS C-KIT KINASE INHIBITORS” (priority 2011, published 2015).
